Measured values from patent publication US8742141B2, “Inhibition and treatment of prostate cancer metastasis” (Northwestern University, priority 2008, dated 2014).
Entries after “also recorded” stand apart in the source; their conditions may differ.

Legend:
[1] = system: PC3-M or PC3 cells; assay: Cell invasion assay, compounds of Example 7; assay type: cell-based, human; conditions: 10 μM of compound
Procedure: (§1) Assays were conducted using methods as described in Craft et al. (2008, Mol. Pharmocol., 73(1):235-242; herein incorporated by reference in its entirety).
(§2) The anti-metastatic activity of the compounds of Example 7 was tested using the procedure of Example 2. Specifically, PC3-M or PC3 cells were treated with 10 μM of compound (for invasion, FIG. 9) or a range of concentrations (for growth inhibition, FIG. 10). For invasion, values are the mean±SD number of invading cells, as a percent of untreated controls, from N=3 separate assays run at different times (each assay was in replicates of N=4). Cell viability was determined by MTT assay as recited in Kyle et al., Mol. Pharmacol, 51(2):193-200 (1997); herein incorporated in its entirety. Values are the mean±SD of N=2 separate assays run at different times (N=3 for each assay), and are the percent of untreated controls.

[2] = system: PC3-M human prostate cancer cells; assay: 3-day growth inhibition MTT assay; assay type: cell-based; conditions: range of concentrations
Procedure: PC3-M human prostate cancer cells were treated with different concentrations of the indicated compound, and then MTT reduction as an indicator of cell viability was measured according to the method of Example 9.
The anti-metastatic activity of compounds 21-26 was tested using the procedure of Example 2. Specifically, PC3-M cells were treated with 10 μM of compound (for invasion, FIG. 11) or a range of concentrations (for growth inhibition, FIG. 12). For invasion, values are the mean±SD number of invading cells, as a percent of untreated controls, from N=3 separate assays run at different times (each assay was in replicates of N=4). Cell viability was determined by MTT assay as recited in Kyle et al., Mol. Pharmacol, 51(2):193-200 (1997); herein incorporated by reference in its entirety. […]
The anti-metastatic activity of compounds 31-38 was tested using the procedure of Example 2. […] Cell viability was determined by MTT assay as recited in Kyle et al., Mol. Pharmacol, 51(2):193-200 (1997); herein incorporated by reference in its entirety. […]
The anti-metastatic activity of compounds 41-48 was tested using the procedure of Example 2. […] Cell viability was determined by MTT assay as recited in Kyle et al., Mol. Pharmacol, 51(2):193-200 (1997); herein incorporated by reference in its entirety. […]

[3] = system: PC3-M cells; assay: Cell invasion assay, compounds 21-48; assay type: cell-based, human; conditions: 10 μM of compound
Procedure: as §1
as §2, with “of” for “of the”, “21-26” for “of Example 7”, “PC3-M” for “PC3-M or PC3”, “11)” for “9)”, “12).” for “10).”, “incorporated by reference” for “incorporated”
as §2, with “of” for “of the”, “31-38” for “of Example 7”, “PC3-M” for “PC3-M or PC3”, “13)” for “9)”, “14).” for “10).”, “incorporated by reference” for “incorporated”
as §2, with “of” for “of the”, “41-48” for “of Example 7”, “PC3-M” for “PC3-M or PC3”, “15)” for “9)”, “16).” for “10).”, “incorporated by reference” for “incorporated”

[4] = system: Estrogen receptor (ER) positive human MCF-7 breast cancer cells; assay: Expression of estrogen responsive genes (TFF1, PGR, CPSD) in MCF-7 cells; assay type: cell-based; conditions: 0.1-50 μM, 24 hours, hormone-free conditions
Procedure: (§3) The genes were: TFF1 (trefoil factor 1; also known as pS2), PGR (progesterone receptor), and CPSD (cathepsin D). Gene expression was measured by isolating RNA, and performing real time quantitative reverse transcription/polymerase chain reaction (qRT/PCR), using exon spanning primers (purchased from Applied Biosystems). The expression of GAPDH was also measured, and used to normalize the expression of ER responsive genes. Data below are the mean±SD of a single experiment, performed in duplicate. […] Additionally, the ability of compound 46 to activate an ER promoter-luciferase reporter vector construct after transient transfection of the human ER positive breast cancer cell line, MCF-7, was evaluated (FIG. 31). […] “No associated control cells” were transfected with an identical vector construct that lacked the estrogen response element, i.e., noERE.

[5] = system: ER promoter-luciferase reporter vector construct; assay: ER promoter-luciferase reporter assay in MCF-7 cells; assay type: cell-based, human; conditions: 10 μM
Procedure: as §3

[6] = system: PC3, PC3-M, 1532CPTX, 1542CPTX, 1532NPTX, and 1542NPTX; assay: Growth inhibition MTT assay in different cell lines; assay type: cell-based, human; conditions: range of concentrations
Procedure: Growth inhibition assays were performed with different cell lines using the procedure of Example 2. Specifically, cell lines (PC3, PC3-M, 1532CPTX, 1542CPTX, 1532NPTX, and 1542NPTX) were treated with a range of concentrations of compound 46 (FIG. 18, FIG. 29). Cell viability was determined by MTT assay as recited in Kyle et al., Mol. Pharmacol, 51(2):193-200 (1997); herein incorporated by reference in its entirety. Data are the mean±SEM of a single experiment, performed in triplicate.

[7] = system: PC3-M, PC3, 1542CPTX, 1532CPTX, 1532NPTX, and 1542NPTX cells; assay: Cell invasion assay, invasion time extended to 16 hours; assay type: cell-based, human; conditions: invasion assay time 16 hours
Procedure: as §1
Expanded studies were performed on compound 46. Cell invasion assays conducted using the procedure of Example 2 utilized control, genistein-treated, and compound 46-treated PC3-M, PC3, 1542CPTX, 1532CPTX, 1532NPTX, and 1542NPTX cells (FIG. 17, FIG. 28). This allowed assay conditions to be adjusted so as to optimize assessment of differences between these three treatment conditions. In particular, the invasion assay time was extended from 14 to 16 hours.

[8] = Short-term animal toxicity study, oral gavage; assay type: in vivo; conditions: 0.15, 1.5, 15, or 150 mg/kg body weight/day, 5 days
Procedure: Six week old athymic male mice were dosed by oral gavage with 0.15, 1.5, 15, or 150 mg KBU2046/kg body weight/day, or vehicle control, daily for 5 days. There were 3 mice per dose level.

[9] = Stability after radiation and autoclaving; assay type: physicochemical
Procedure: Successful scale-up of synthesis of compound 46 was conducted according to the methods of Examples 7, 11, and the Detailed Description, yielding 10 g of material that is >98% pure (by HPLC).

With `O=c1c(-c2ccccc2)coc2ccccc12` [Compound 1] the “inhibition of cell invasion (anti-metastatic activity)” value (from here on “inhibition of cell invasion”) [1] was “did not show any significant inhibition of cell invasion”.
For `O=c1c(-c2ccc(O)cc2)coc2cc(O)cc(O)c12` [Compound 8], the “inhibition of cell invasion” value [1] was “did not show any significant inhibition of cell invasion”.
With `O=c1oc2cc(O)cc(O)c2cc1-c1ccc(O)cc1` [Compound 17] the “inhibition of cell invasion” value [1] was “did not show any significant inhibition of cell invasion”.
With `O=C1c2c(O)cc(O)cc2OCC1c1ccc(O)cc1` (centres unmarked) [Compound 22, 5,7,4′-trihydroxyisoflavanone] the “cell growth inhibition (MTT)” value [2] was “little-to-no effect upon cell growth inhibition” and the anti-invasion efficacy [3] was “retain anti-invasion efficacy”.
With `COc1ccc(-c2cc3c(OC)cc(OC)cc3oc2=O)cc1` [Compound 23] the anti-invasion efficacy [3] was “loss of activity”.
In the case of `CC(=O)Oc1ccc(-c2cc3c(OC(C)=O)cc(OC(C)=O)cc3oc2=O)cc1` [Compound 24], the anti-invasion efficacy [3] was “loss of activity”.
In the case of `O=c1oc2cc(O)cc(O)c2cc1-c1ccc(O)cc1` [Compound 25], the anti-invasion efficacy [3] was “loss of activity”.
In the case of `O=c1c(-c2cccc(Cl)c2)coc2ccccc12` [Compound 38, 3′-chloroisoflavone], the “cell growth inhibition (MTT)” value [2] was “growth inhibitory effects” and the anti-invasion efficacy [3] was “anti-invasive”.
In the case of `O=C1c2ccccc2OCC1c1ccc(F)cc1` (centres unmarked) [Compound 46, 4′-fluoroisoflavanone], the “estrogenic activity (expression of estrogen responsive genes)” value [4] was “no estrogenic activity”, the luciferase activity [5] was “no effect” and the “toxicity in growth inhibition assay (MTT cell viability)” value [6] was “less toxic than genistein, and in fact shows no toxicity; also recorded: no cell toxicity”. The “anti-invasion efficacy compared to genistein” value [7] was “greater efficacy than genistein; also recorded: greater anti-invasion efficacy compared to genistein”, the toxicity [8] was “no evidence of toxicity” and the compound stability ([9]; after exposure to 40 kGy of radiation) was “stability was documented”. The compound stability ([9]; after exposure to high temperatures and pressures (autoclaving)) was “stability was documented”.
